Measurements reported in publication PMC10099809, “Valorization of Adhatoda vasica leaves: Extraction, in vitro analyses and in silico approaches” (Frontiers in Nutrition, 2023).
In brackets after ≈: the same amount, converted by molar mass. One block for each molecule: values may come before it.

Experiments:
lipooxygenase (LOX) = assay: Lipooxygenase inhibition assay; format: biochemical
From the text: (§1) The anti-inflammatory activity of vasicine was investigated with lipooxygenase (LOX) inhibition assay ([26]), bovine serum albumin (BSA) method ([27]), egg albumin method ([28], [29]), and protein inhibitory action ([30]).

egg albumin = molecular target: T1, egg albumin (Gallus gallus, UniProt P01012); assay: Egg albumin method (albumin denaturation); format: biochemical; conditions: for Inhibition of albumin denaturation: concentration range 10 to 100 μg/ml
T1 sequence (P01012 1-386): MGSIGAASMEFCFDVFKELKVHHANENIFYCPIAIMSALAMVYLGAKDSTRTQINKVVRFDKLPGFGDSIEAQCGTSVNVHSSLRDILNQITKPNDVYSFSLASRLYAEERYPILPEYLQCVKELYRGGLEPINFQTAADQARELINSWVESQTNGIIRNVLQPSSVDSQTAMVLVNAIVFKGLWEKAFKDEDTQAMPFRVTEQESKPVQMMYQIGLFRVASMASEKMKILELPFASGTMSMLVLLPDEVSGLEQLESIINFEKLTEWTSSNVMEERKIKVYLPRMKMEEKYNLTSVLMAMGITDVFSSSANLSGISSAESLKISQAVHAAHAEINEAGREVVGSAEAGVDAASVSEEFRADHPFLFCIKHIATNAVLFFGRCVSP
From the text: as §1

[1] = Hydroxyl radical scavenging assay; conditions: for Hydroxyl radical scavenging % inhibition: range, up to 100 μg/ml
Method: (§2) The anti-oxidant activity of vasicine was evaluated with ABTS [2,2′-azino-bis (3-ethylbenzothiazoline-6-sulfonic acid)] activity ([20]), ferric reducing power (FRAP) assay, DPPH radical scavenging activity, hydroxyl radical scavenging activity ([21]–[24]), and hydrogen peroxide assay ([25]).

[2] = DPPH radical scavenging activity; conditions: for DPPH % inhibition: at 100 μg/ml
Method: as §2

hemoglobin = hemoglobin (Homo sapiens, UniProt P68871+P69905); assay: Non-enzymatic glycosylation of hemoglobin assay; format: biochemical; conditions: incubation of hemoglobin with glucose for 72 h; in comparison to the standard drug
Chain of hemoglobin (P69905 2-142 limits assumed): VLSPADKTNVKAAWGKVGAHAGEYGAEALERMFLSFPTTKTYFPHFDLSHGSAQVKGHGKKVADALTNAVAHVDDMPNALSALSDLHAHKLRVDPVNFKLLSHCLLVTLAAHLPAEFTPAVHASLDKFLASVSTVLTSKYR
Chain of hemoglobin (P68871 2-147 limits assumed): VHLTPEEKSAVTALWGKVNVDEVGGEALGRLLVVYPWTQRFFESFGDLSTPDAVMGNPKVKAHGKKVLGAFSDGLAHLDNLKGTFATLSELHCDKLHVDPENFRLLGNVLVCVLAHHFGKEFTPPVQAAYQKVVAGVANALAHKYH
Method: (§3) The antidiabetic activity of vasicine was evaluated with in vitro enzymatic assays using α-amylase and α-glucosidase ([31]–[36]). The non-enzymatic glycosylation of hemoglobin assay was also carried out ([37]).

α-amylase = α-amylase inhibition assay; format: biochemical
Method: as §3

lung carcinoma (A545) = assay: Anticancer activity, direct microscopic observation and MTT assay; format: cell-based
Method: (§4) The anticancer activity of vasicine for the potential treatment of lung carcinoma (A545) was evaluated in a multi-step process. Cytotoxicity of vasicine was investigated by cytotoxicity evaluation (human fibroblast cell line, C0135C) ([39], [40]), direct microscopic observation ([41]), and MTT assay ([42]).

ABTS scavenging activity = assay: ABTS scavenging activity
Method: as §2

[3] = test system: serum alkaline phosphatase; parameters: method as in Srinivasarao et al. ([60]); conditions: Swiss albino mice treated with vasicine; ref Srinivasarao et al. ([60]); cited from earlier work
Bacillus badius = assay: Antibacterial colony forming units (CFU) assay; format: cell-based; conditions: increasing concentration of purified vasicine
Method: (§5) Antibacterial assay was carried outby colony forming units (CFU) assay using anaerobic and facultative oral bacteria ([17]). Two different bacterial strains (Escherichia coli and Bacillus badius) were collected from NCCS, Pune. […] The broth were kept in incubator at 37°C for 24 h. Two strains of Bacteria were grown in MH broth to an OD600nm of 0.5. 2 μLaliquot of the bacteria and 5 ml of fresh MH broth (contains various concentration of vasicine) was added ([19]). The log10 reduction in CFU/ml was determined.

Escherichia coli = assay: Antibacterial colony forming units (CFU) assay; format: cell-based; conditions: E. coli; increasing concentration of purified vasicine
Method: as §5

[4] = test system: human fibroblast cell line, C0135C; assay: Cytotoxicity evaluation, MTT assay; format: cell-based; conditions: cell viability
Method: as §4

proteinase = assay: Proteinase inhibitory activity; format: biochemical
From the text: as §1

[5] = Ferric reducing antioxidant power (FRAP) assay
Method: as §2

[6] = molecular target: bovine serum albumin (BSA) (Bos taurus, UniProt P02769); assay: BSA method (albumin denaturation); format: biochemical
Chain of bovine serum albumin (BSA) (P02769 25-607): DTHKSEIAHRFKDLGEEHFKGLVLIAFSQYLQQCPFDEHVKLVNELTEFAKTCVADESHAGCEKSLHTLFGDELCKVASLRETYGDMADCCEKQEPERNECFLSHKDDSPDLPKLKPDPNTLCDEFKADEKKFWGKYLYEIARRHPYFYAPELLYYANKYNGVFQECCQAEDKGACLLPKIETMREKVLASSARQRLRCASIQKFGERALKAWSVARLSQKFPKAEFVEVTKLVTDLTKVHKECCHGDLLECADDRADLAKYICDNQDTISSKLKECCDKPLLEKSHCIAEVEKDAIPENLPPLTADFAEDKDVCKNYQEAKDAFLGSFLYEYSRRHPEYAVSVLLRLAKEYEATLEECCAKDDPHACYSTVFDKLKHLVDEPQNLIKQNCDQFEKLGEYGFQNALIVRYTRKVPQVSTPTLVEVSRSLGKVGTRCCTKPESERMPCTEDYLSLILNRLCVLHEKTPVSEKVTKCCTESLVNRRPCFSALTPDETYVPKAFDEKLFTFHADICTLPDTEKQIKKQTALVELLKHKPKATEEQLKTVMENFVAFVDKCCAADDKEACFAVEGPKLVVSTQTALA
From the text: as §1

Hydrogen peroxide assay = assay: Hydrogen peroxide assay
Method: as §2

Lipooxygenase % inhibition (lipooxygenase (LOX); at 100 μg/ml): 82%
Inhibition of albumin denaturation (egg albumin): 89%
Structure (SMILES): O=C(O)Cc1ccccc1Nc1c(Cl)cccc1Cl [diclofenac sodium, reference compound]

Structure (SMILES): O=C1O[C@H]([C@@H](O)CO)C(O)=C1O [ascorbic acid, reference compound]
Hydroxyl radical scavenging % inhibition [1]: 15–86%
DPPH % inhibition [2]: 96%

Structure (SMILES): O[C@H]1CCN2Cc3ccccc3N=C12 [vasicine]
Inhibition of hemoglobin glycosylation (hemoglobin): substantially inhibits hemoglobin glycosylation
α-amylase inhibition IC50 (α-amylase): 47.6 µg/mL
inhibition at 100 µg/mL (lung carcinoma (A545); A545, read-out: Growth inhibition of lung cancer cell line): 30.1%
Inhibition of cell growth, lung cancer cell line (lung carcinoma (A545); discussion statement, concentration not given): More than 50%
ABTS scavenging IC50 (ABTS scavenging activity): 11.5 µg/mL
Serum alkaline phosphatase [3]: increase in serum alkaline phosphatase
Number of colonies (CFU assay) (Bacillus badius): number of colonies reduced
Number of colonies (CFU assay) (Escherichia coli): number of colonies reduced
IC50 [4]: 82.5 µg/mL (≈ 438 µM)
Proteinase inhibitory IC50 (proteinase): 76 µg/mL
Hydroxyl radical scavenging IC50 [1]: 22 µg/mL
Hydroxyl radical scavenging % inhibition [1]: 12–69%
Lipooxygenase IC50 (lipooxygenase (LOX)): 76 µg/mL
Lipooxygenase maximum percentage inhibition (lipooxygenase (LOX); maximum): 83%
FRAP IC50 [5]: 15 µg/mL
FRAP % inhibition ([5]; at 100 μg/ml): 62%
IC50 [6]: 275 µM
BSA method maximum percentage of inhibition ([6]; maximum): 82%
Hydrogen peroxide assay IC50 (Hydrogen peroxide assay): 27.8 µg/mL
Inhibitory activity against hydrogen peroxide (Hydrogen peroxide assay; 10–100 μg): 9–59%
DPPH radical scavenging IC50 [2]: 18.2 µg/mL
DPPH % inhibition [2]: 81%
IC50 (egg albumin): 283 µM
Inhibition of albumin denaturation (egg albumin): 81%

Proteinase % inhibition (proteinase; standard): 79%
Structure (SMILES): CC(=O)Oc1ccccc1C(=O)O [aspirin, reference compound]
